Test results published in patent US8426447B2, “Spiro-tricyclic ring compounds as beta-secretase modulators and methods of use” (Amgen Inc., priority 2008, dated 2013).
pIC50: −log10 of the molar value.

Assays:
BACE1 [1] = biological target: T1, BACE1 (Homo sapiens, UniProt P56817); experiment: In Vitro Enzymatic BACE FRET (Fluorescence Resonance Energy Transfer) Assay; assay type: biochemical; details: read-out: BACE1 FRET assay; for IC50: Table III, IC50's in uM ranges
Method in brief: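 Cleavage of a 50 nM internally quenched peptide substrate is followed by fluorescence after a one-hour reaction in acidic acetate buffer, pH 4.2, terminated by Tris.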

BACE1 [2] = biological target: T1, BACE1; experiment: In Vitro BACE Cell-based Assay (HEK cell assay): Aβ40 in conditioned medium of cells stably expressing Amyloid Precursor Protein, sandwich ELISA; details: read-out: HEK cell assay; for IC50: Table III, IC50's in uM ranges
Method in brief: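 Conditioned medium Aβ40 by ELISA: pAb40 capture 3 h 4° C., biotin-6E10 detection 2 h 4° C., Streptavidin-Europium TRF. IC50 fitted from % control.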

[3] = in vitro BACE FRET enzyme assay, IC50 class symbols
[4] = HEK cell-based assay, Aβ40 in conditioned medium, IC50 class symbols

T1 sequence (P56817 46-501, species assumed): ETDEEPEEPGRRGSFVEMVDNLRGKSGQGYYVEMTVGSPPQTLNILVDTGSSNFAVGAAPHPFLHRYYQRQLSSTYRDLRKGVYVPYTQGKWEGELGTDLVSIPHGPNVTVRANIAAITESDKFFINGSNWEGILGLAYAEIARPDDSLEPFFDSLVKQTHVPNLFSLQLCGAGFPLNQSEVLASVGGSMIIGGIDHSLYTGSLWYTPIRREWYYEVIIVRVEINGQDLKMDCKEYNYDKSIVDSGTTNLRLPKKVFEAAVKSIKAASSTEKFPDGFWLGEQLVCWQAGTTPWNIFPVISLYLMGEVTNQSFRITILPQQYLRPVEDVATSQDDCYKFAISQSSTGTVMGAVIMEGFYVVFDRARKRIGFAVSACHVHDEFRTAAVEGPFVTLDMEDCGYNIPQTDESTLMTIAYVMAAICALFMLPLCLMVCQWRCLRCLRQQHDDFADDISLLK

SMILES: NC1=NC2(CO1)c1cc(-c3ccccc3)ccc1Oc1ccc(-c3ccccc3)cc12 [compound 532]
- pIC50 (BACE1 [1]; Table IV, class symbols): > 7.00
- pIC50 (BACE1 [2]; Table IV, class symbols): 6.00 to 7.00

SMILES: NC1=N[C@]2(CO1)c1cc(C#CC3(O)COC3)ccc1Oc1ccc(-c3cccnc3)cc12 [compound 685]
- pIC50 (BACE1 [1]): > 7.00
- pIC50 (BACE1 [2]): > 7.00

SMILES: CC(C)(C)COc1ccc2c(c1)[C@]1(COC(N)=N1)c1cc(-c3ccc(N4CCOCC4)nc3)ccc1O2 [compound 912]
- pIC50 (BACE1 [1]; Table IV, class symbols): 5.30 to 6.00
- pIC50 (BACE1 [2]; Table IV, class symbols): < 5.30

SMILES: NC1=N[C@@]2(CO1)c1cc(-c3cccnc3)ccc1Oc1ncc(-c3cccnc3)cc12 [compound 203]
- IC50 (BACE1 [1]): 0.1 to 1 µM
- IC50 (BACE1 [2]): 1 to 5 µM

SMILES: NC1=N[C@]2(CO1)c1cc(C3=CCSCC3)ccc1Oc1ccc(-c3cncnc3)cc12 [compound 831]
- pIC50 (BACE1 [1]; Table IV, class symbols): > 7.00
- pIC50 (BACE1 [2]; Table IV, class symbols): > 7.00

SMILES: NC1=N[C@]2(CO1)c1cc(-c3ccc(F)nc3)ccc1Oc1ncc(C3=CCOCC3)cc12 [compound 716]
- pIC50 (BACE1 [1]): 5.30 to 6.00
- pIC50 (BACE1 [2]): 5.30 to 6.00

SMILES: CC(C)(C)C#Cc1cnc2c(c1)[C@]1(COC(N)=N1)c1cc(-c3ccnnc3)ccc1O2 [compound 653]
- pIC50 (BACE1 [1]; Table IV, class symbols): > 7.00
- pIC50 (BACE1 [2]; Table IV, class symbols): 6.00 to 7.00

SMILES: NC1=N[C@@]2(CO1)c1cc(-c3cccnc3)ccc1Oc1cnc(N3CCCC3)cc12 [compound 493]
- pIC50 (BACE1 [1]): > 7.00
- pIC50 (BACE1 [2]; HEK cells): > 7.00

SMILES: CC(C)(C)CCc1ccc2c(c1)[C@]1(COC(N)=N1)c1cc(Oc3ccccn3)ccc1O2 [compound 205]
- IC50 (BACE1 [1]): < 0.1 µM
- IC50 (BACE1 [2]): 0.1 to 1 µM

SMILES: CC1(C#Cc2cnc3c(c2)[C@]2(COC(N)=N2)c2cc(-c4cc(Cl)ccc4F)ccc2O3)COC1 [compound 521, (5S)-7-(5-chloro-2-fluorophenyl)-3-((3-methyl-3-oxetanyl)ethynyl)spiro[chromeno[2,3-b]pyridine-5,4′-[1,3]oxazol]-2′-amine]
- pIC50 (BACE1 [1]): > 7.00
- pIC50 (BACE1 [2]; HEK cells): > 7.00

SMILES: CC(C)(F)COc1ccc2c(c1)[C@]1(COC(N)=N1)c1cc(-c3cncnc3)cnc1O2 [compound 176]
- IC50 (BACE1 [1]): < 0.1 µM
- IC50 (BACE1 [2]): 0.1 to 1 µM

SMILES: NC1=N[C@]2(CO1)c1cc(OC[C@H](O)C(F)(F)F)ccc1Oc1ccc(-c3cccnc3)cc12 [compound 924]
- pIC50 (BACE1 [1]; Table IV, class symbols): > 7.00
- pIC50 (BACE1 [2]; Table IV, class symbols): 6.00 to 7.00

SMILES: NC1=N[C@@]2(CO1)c1cc(-c3cccnc3N3CCOCC3)ccc1Oc1cnc(N3CCOCC3)cc12 [compound 336]
- pIC50 (BACE1 [1]; [3]): > 7.00
- pIC50 (BACE1 [2]; [4]): 6.00 to 7.00

SMILES: NC1=N[C@@]2(CO1)c1cc(-c3cccnc3)ccc1Oc1ccc(-c3ccc(F)nc3)cc12 [compound 969]
- pIC50 (BACE1 [1]): > 7.00
- pIC50 (BACE1 [2]): > 7.00

SMILES: CC(C)(C)COc1ccc2c(c1)[C@@]1(COC(N)=N1)c1cc(C(=O)N3CCCC3)ccc1O2 [218a]
- IC50 (BACE1 [1]): 0.1 to 1 µM
- IC50 (BACE1 [2]): 1 to 5 µM

SMILES: COc1ccc2c(c1)[C@]1(COC(N)=N1)c1cc(OC)cnc1O2 [compound 541]
- pIC50 (BACE1 [1]; Table IV, class symbols): < 5.30
- pIC50 (BACE1 [2]; Table IV, class symbols): 5.30 to 6.00

SMILES: CC(C)(C)COc1ccc2c(c1)[C@]1(COC(N)=N1)c1cc(C#CC3CC3)ccc1O2 [Example 40, (4S)-2′-(cyclopropylethynyl)-7′-(2,2-dimethylpropoxy)spiro[1,3-oxazole-4,9′-xanthen]-2-amine]
- pIC50 (BACE1 [1]; Table II): > 7.00
- pIC50 (BACE1 [2]; Table II, Aβ40, 24 h incubation): 6.00 to 7.00

SMILES: CC1(COc2ccc3c(c2)[C@]2(COC(N)=N2)c2cc(C#CC4CC4)ccc2O3)COC1 [compound 197]
- IC50 (BACE1 [1]): < 0.1 µM
- IC50 (BACE1 [2]): < 0.1 µM

SMILES: CCOc1ccc(-c2cnc3c(c2)[C@]2(COC(N)=N2)c2cc(OCC(C)(C)C)ccc2O3)cn1 [compound 804]
- pIC50 (BACE1 [1]; Table IV, class symbols): > 7.00
- pIC50 (BACE1 [2]; Table IV, class symbols): > 7.00

SMILES: CC(C)(C)COc1ccc2c(c1)[C@]1(COC(N)=N1)c1cc(-c3ccc(Br)nn3)ccc1O2 [compound 970]
- pIC50 (BACE1 [1]): 6.00 to 7.00
- pIC50 (BACE1 [2]): < 5.30

SMILES: NC1=N[C@@]2(CO1)c1cc(-c3cccnc3)ccc1Oc1cnc(C3=CCOCC3)cc12 [compound 849]
- pIC50 (BACE1 [1]; Table IV, class symbols): > 7.00
- pIC50 (BACE1 [2]; Table IV, class symbols): > 7.00

SMILES: CC(C)(C)/C=C/c1cc2c(cn1)Oc1ccc(-c3cccnc3F)cc1[C@@]21COC(N)=N1 [compound 514]
- pIC50 (BACE1 [1]): > 7.00
- pIC50 (BACE1 [2]; HEK cells): > 7.00

SMILES: CC(C)(C)OC(=O)Cc1ccc2c(c1)[C@]1(COC(N)=N1)c1cc(-c3cccnc3)ccc1O2 [compound 706]
- pIC50 (BACE1 [1]): 6.00 to 7.00
- pIC50 (BACE1 [2]): 6.00 to 7.00

SMILES: CC(C)(O)COc1ccc2c(c1)[C@]1(COC(N)=N1)c1cc(Br)ccc1O2 [compound 210]
- IC50 (BACE1 [1]): 1 to 5 µM
- IC50 (BACE1 [2]): 1 to 5 µM

SMILES: NC1=N[C@@]2(CO1)c1cc(-c3cccnc3)ccc1Oc1cnc(-c3cccnc3)cc12 [compound 184]
- IC50 (BACE1 [1]): < 0.1 µM
- IC50 (BACE1 [2]): < 0.1 µM

SMILES: CC(C)(C#N)COc1cc2c(cc1F)Oc1ccc(-c3cccnc3)cc1[C@@]21COC(N)=N1 [compound 547]
- pIC50 (BACE1 [1]; Table IV, class symbols): > 7.00
- pIC50 (BACE1 [2]; Table IV, class symbols): > 7.00

SMILES: NC1=N[C@@]2(CO1)c1cc(-c3cc(Cl)ccc3F)ccc1Oc1cnc(-c3ccncc3)cc12 [compound 330]
- pIC50 (BACE1 [1]; [3]): > 7.00
- pIC50 (BACE1 [2]; [4]): > 7.00

SMILES: NC1=N[C@@]2(CO1)c1cc(-c3cccnc3)ccc1Oc1cnc(C3=CCCCO3)cc12 [compound 729]
- pIC50 (BACE1 [1]): > 7.00
- pIC50 (BACE1 [2]): > 7.00
